Reference: PMC7844219, “Antifibrotic effect of novel neutrophil gelatinase-associated lipocalin inhibitors in cardiac and renal disease models” (Scientific Reports, 2021)

Tests used:
hERG channel = biological target: T1, hERG channel (Homo sapiens, UniProt Q12809); experiment: Cardiotoxicity, Predictor hERG fluorescence polarization kit; type: binding
T1 construct: purchased Thermo Fisher Scientific
Experimental: (§1) Several parameters have been evaluated to determine ADME-Tox profile of the compounds. Two specific toxicity assays have been performed to assess hepatoxicity and cardiotoxicity. Hepatotoxicity was evaluated in isolated hepatocytes from swiss mice and determined by the thiazolyl blue tetrazolium bromide colorimetric assay (sigma, St Louis, MO, USA). Cardiotoxicity was evaluated using the commercially available Predictor hERG fluorescence polarization kit (Thermo Fisher Scientific, Illinois, USA). Several absorption, distribution, metabolism, and excretion (ADME) assays have been carried out. The following experiments were undertaken: stability in human microsomes, binding to human plasma protein, and CYP3A4 inhibition assay (Vivid CYP3A4 assay, Thermo Fisher Scientific, Illinois, USA). Physico-chemical properties were also assessed such as aqueous solubility and chemical stability.

[1] = test system: TGFβ-treated human cardiac fibroblasts; experiment: Specificity: IL6 and Col I secretion in TGFβ-treated human cardiac fibroblasts; type: cell-based; details: 10 µM, Fig. S5
Experimental: Primary human cardiac fibroblasts (HCF) were obtained from Promocell (Heidelberg, Germany) and maintained in Fibroblast Media 3 following manufacturer’s instructions (Promocell). Cells were used between passages 5 and 7. Cells were stimulated with recombinant hNGAL (500 ng/mL, R&D Systems) or with TGFβ (10 ng/mL, R&D Systems) for 24 h. To assess cell proliferation the MTT test was used following provider’s instructions (Roche). For protein analysis. Primary Mouse Kidney Fibroblasts (MKF) were isolated from Wild Type (WT) mice. Briefly, 8 weeks old mice were sacrificed by cervical dislocation and kidneys were cleaned and rinsed in cold DPBS (Dulbecco's Phosphate-Buffered Saline). The renal cortex was minced and incubated in Dulbecco’s modified eagle medium/Nutrient mixture F-12 (DMEM/F12, Sigma) containing 1 mg/mL collagenase A (Roche) during 25 min at 37 °C. The digestion was inactivated by adding culture medium (DMEM/F12 + 10% FBS) then the cell suspension was passed through a 100-μm cell strainer. After centrifugation, the pellet (containing MKF) was diluted with culture medium then plated in 75 cm^2 culture flask. After 24 h MKF were washed with DPBS before replacement of fresh culture medium. […]
IL6 and collagen type I concentrations were measured in cardiac tissue and cell supernatants by ELISA according to the manufacturer's instructions (R&D Systems).

hNGAL = biological target: T2, hNGAL (Homo sapiens, UniProt P80188); experiment: Cell proliferation (MTT) in hNGAL-treated human cardiac fibroblasts; type: cell-based
T2 construct: purchased R&D Systems
Experimental: Primary human cardiac fibroblasts (HCF) were obtained from Promocell (Heidelberg, Germany) and maintained in Fibroblast Media 3 following manufacturer’s instructions (Promocell). Cells were used between passages 5 and 7. Cells were stimulated with recombinant hNGAL (500 ng/mL, R&D Systems) or with TGFβ (10 ng/mL, R&D Systems) for 24 h. To assess cell proliferation the MTT test was used following provider’s instructions (Roche). For protein analysis. Primary Mouse Kidney Fibroblasts (MKF) were isolated from Wild Type (WT) mice. Briefly, 8 weeks old mice were sacrificed by cervical dislocation and kidneys were cleaned and rinsed in cold DPBS (Dulbecco's Phosphate-Buffered Saline). The renal cortex was minced and incubated in Dulbecco’s modified eagle medium/Nutrient mixture F-12 (DMEM/F12, Sigma) containing 1 mg/mL collagenase A (Roche) during 25 min at 37 °C. The digestion was inactivated by adding culture medium (DMEM/F12 + 10% FBS) then the cell suspension was passed through a 100-μm cell strainer. After centrifugation, the pellet (containing MKF) was diluted with culture medium then plated in 75 cm^2 culture flask. After 24 h MKF were washed with DPBS before replacement of fresh culture medium. Thereafter, culture medium was changed every 48 h. Once 70–80% confluent, MKF were trypsinized and plated in 12 or 6-well plates. For experimental use, MKF were starved with culture medium containing only 3% FBS. MKF were treated with mNGAL (500 ng/mL, R&D Systems) or with TGFβ (10 ng/mL, R&D Systems) for 6 h for gene expression analysis.
Cell proliferation was assessed using the MTT Proliferation Assay (Sigma).

human plasma protein = experiment: Binding to human plasma protein; type: in vitro ADME
Experimental: as §1

Aqueous solubility = type: physicochemical
Experimental: as §1

[2] = test system: isolated hepatocytes from swiss mice; experiment: Hepatotoxicity, thiazolyl blue tetrazolium bromide (MTT) colorimetric assay; type: cell-based, mouse
Experimental: as §1

T2 sequence (P80188 21-198): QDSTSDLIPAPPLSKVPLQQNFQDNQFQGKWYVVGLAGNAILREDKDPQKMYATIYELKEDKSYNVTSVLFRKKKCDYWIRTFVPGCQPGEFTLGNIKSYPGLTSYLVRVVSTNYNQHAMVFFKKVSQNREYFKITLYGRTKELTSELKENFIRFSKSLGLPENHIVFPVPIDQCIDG
T1 sequence (Q12809 whole entry): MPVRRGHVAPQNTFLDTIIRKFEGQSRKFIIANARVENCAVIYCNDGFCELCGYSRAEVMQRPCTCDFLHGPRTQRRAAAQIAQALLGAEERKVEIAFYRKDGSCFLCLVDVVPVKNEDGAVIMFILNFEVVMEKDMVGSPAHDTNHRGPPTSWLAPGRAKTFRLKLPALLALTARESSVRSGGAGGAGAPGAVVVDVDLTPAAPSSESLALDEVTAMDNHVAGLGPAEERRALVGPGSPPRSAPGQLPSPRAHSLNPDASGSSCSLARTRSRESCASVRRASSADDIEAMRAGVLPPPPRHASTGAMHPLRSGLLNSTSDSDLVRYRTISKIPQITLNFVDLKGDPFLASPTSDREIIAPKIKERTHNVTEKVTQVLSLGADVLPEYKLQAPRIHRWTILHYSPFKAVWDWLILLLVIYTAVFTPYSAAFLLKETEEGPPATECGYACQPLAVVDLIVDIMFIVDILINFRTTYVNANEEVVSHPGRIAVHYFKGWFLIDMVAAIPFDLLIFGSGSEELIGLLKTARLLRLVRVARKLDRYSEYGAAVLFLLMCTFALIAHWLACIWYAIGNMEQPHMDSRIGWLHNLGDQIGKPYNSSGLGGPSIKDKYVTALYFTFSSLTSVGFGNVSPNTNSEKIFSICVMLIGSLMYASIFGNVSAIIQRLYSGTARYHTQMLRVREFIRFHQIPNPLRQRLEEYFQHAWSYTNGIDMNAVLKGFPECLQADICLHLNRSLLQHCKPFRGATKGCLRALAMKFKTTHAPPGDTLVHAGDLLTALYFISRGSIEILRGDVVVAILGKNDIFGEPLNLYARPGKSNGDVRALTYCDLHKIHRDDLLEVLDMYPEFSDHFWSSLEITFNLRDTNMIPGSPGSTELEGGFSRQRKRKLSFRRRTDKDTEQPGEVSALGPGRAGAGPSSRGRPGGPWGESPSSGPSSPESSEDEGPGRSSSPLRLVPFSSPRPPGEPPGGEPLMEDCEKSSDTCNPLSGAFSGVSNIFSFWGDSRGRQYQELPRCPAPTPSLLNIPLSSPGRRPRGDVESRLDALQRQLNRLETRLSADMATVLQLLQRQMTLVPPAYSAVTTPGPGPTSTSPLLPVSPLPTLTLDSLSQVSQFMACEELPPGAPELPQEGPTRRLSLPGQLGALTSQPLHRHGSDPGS

With `CC(=O)c1cccc(S(=O)(=O)NCc2ccccc2-n2cccn2)c1` [GPZ614741] the “Cardiotoxicity (hERG predictor assay), in words” value (hERG channel) was “nontoxic”, the “Cardiotoxicity % (100= no toxicity)” value (hERG channel; Table S5, hERG predictor assay) was 101.76 ± 2.48% and the “Effect on TGFβ-increased IL6 and Col I secretion” value [1] was “no inhibitory effect”. For the same compound, the “hNGAL-induced cell proliferation, in words” value (hNGAL; 10 µM, Fig. 1E) was “blocked”, the “Dose–response on proliferation induced by NGAL” value (hNGAL; Fig. S2) was “able to block the proliferative effects of NGAL at 1 and 10 µM, but not at lower concentrations” and the “Plasma protein binding (PPB), in words” value (human plasma protein) was “low”. For the same compound, the hPPB% (human plasma protein; Table S5, human plasma protein binding) was 71.16%, the “Solubility in aqueous buffers, in words” value (Aqueous solubility) was “perfectly soluble” and the Aquous solubility % (Aqueous solubility; Table S5) was 100%. The “Hepatotoxicity (MTT)” value [2] was > 0.1 mM and the Hepatotoxicity ([2]; Table S5, MTT) was > 100 µM.
